Assay [1] relates to ERK1/2 phosphorylation in EAhy926 endothelial cells. The assay is described as follows: ERK1/2 phosphorylation in EA.hy.926 endothelial cells, Western blot of lysates (LI-COR Odyssey). The assay is classed as cell-based, human. The settings on record: 5 min; 10 nM APC or thrombin, 10 μM TFLL peptide, 50 μM TR47-66 or scr-TR47-66. As for the experimental part: To assess whether PAR1 cleaved at Arg^46 would generate a PAR1 N-terminus that is capable of promoting PAR1 signaling, we studied the effects of synthetic peptides on ERK1/2 phosphorylation in EAhy926 endothelial cells. […] Relative phosphorylation of ERK1/2 was determined using the LI-COR Odyssey infrared imaging system which permits quantitative analysis over a wide dynamic range.
In this figure (left), anti-pT202Y204-ERK1/2 antibodies appear green while total anti-ERK1/2 antibodies appear red, and orange intensity reflects overlaps. […] The signal for phosphorylated ERK1/2 (green channel) was normalized to the signal for total ERK1/2 antigen (red channel) to quantify relative phosphorylation as a ratio, and the results are seen in the bar graph. […] The control scr-TR47-66 peptide (scrambled residues 47-66) caused no increase.
Methods: EA.hy.926 cells (ATCC; CRL-2922) were grown in 6-well plates in DMEM (Invitrogen #12430) supplemented with glutamax (Invitrogen #35050) and 10% FBS (Hyclone #35-011-CV) in a 37° C. cell incubator with a humidified atmosphere and 5% CO2 in air until confluency. […] Subsequently cells were resuspended in lysis buffer with protein and phosphatase inhibitors, cell lysates were applied to SDS-PAGE gel electrophoresis on 10% Bis-Tris gels with MOPS running buffer (Invitrogen) and transferred to PVDF membrane (Millipore) for Western blot analysis. Blots were blocked in Odyssey blocking buffer (Licor) and incubated with a combination of mouse anti-ERK1/2 (1/2000; Cell Signaling #3A7) and rabbit anti-pT202/204 ERK1/2 (1/1000; cell signaling #D13.14.4E) antibodies in Odyssey blocking buffer (Licor). After washing, blots were incubated with RDye680-labeled donkey anti-mouse (1/10,000; Licor) and IRDye800CW-labeled donkey anti-rabbit (1/10,000), washed again with PBS/0.1% Tween and IR fluorescence of bound antibodies was determined using the Odyssey (Licor).

Assay [2] concerns Akt phosphorylation at Ser473 in EA.hy.926 human endothelial cells. Put plainly: Akt Ser473 phosphorylation in EA.hy.926 endothelial cells (in-cell Western). As to conditions: for Ser473-Akt phosphorylation (activation of Akt): Example 7, under the employed experimental conditions; for pSer473-Akt (Akt phosphorylation): 0, 5 or 30 min, TFLL 50 μM, NPND 250 μM, scr-NPND 250 μM. The assay is classed as cell-based. The source says: (§1) Activated Protein C (APC) cleaves a synthetic PAR1 tail peptide at Arg^41 and Arg^46; furthermore, APC cleaves SEAP-PAR1 mutants with the mutations R41A or R41Q but not SEAP-PAR1 with both R41Q/R46Q mutations. […] It was thus hypothesized that a new PAR1 N-terminus beginning at residue Asn-47 promotes PAR1 signaling and APC cytoprotective activities. Since phosphorylation of signaling network components is useful for monitoring activation of signaling pathways, the effects of synthetic PAR1 peptides on Akt and ERK1/2 phosphorylation in EA.hy.926 human endothelial cells were studied. Cells were treated for 0, 5 or 30 min with peptides prior to cell fixation, permeabilization of cells and subsequent immunoblotting analysis (“in-cell Western blotting”). Relative phosphorylation of Akt at Ser^473 (pSer^473-Akt) or of ERK1/2 at Thr202/204 (pERK1/2) in endothelial cells was quantified using the LI-COR Odyssey infrared (IR) fluorescence imaging system which permits “in cell” Western blots. The Odyssey permits simultaneous quantification of different antibodies that yield either red or green signals.
(§2) Methods: EA.hy.926 cells (ATCC: CRL-2922) were grown in black clear bottom 96 well plates (Nunc) in DMEM (Invitrogen #12430) supplemented with glutamax (Invitrogen #35050) and 10% FBS (Hyclone #35-011-CV) in a 37° C. cell incubator with a humidified atmosphere and 5% CO2 in air until confluency. Cells were treated for 0, 5 or 30 min with PAR1 peptides TFLL (50 μM), NPND (250 μM) or scr-NPND (250 μM) or with vehicle in serum free media. Subsequently cells were fixed with methanol free 4% para-formaldehyde (Pierce), washed with phosphate buffered saline (PBS; Invitrogen) containing 1% triton X-100 and blocked with Odyssey blocking buffer (Licor). Cells were incubated with rabbit anti-pT202/Y204 ERK1/2 (1/1000; Cell signaling D13.14.4E) or rabbit anti-pSer^473 (1/100; cell signaling D9E) with Odyssey blocking buffer. After washing with PBS/0.1% Tween (1/800), IRDye 800CW-labelled secondary goat anti-rabbit antibodies (Licor) were added to the cells in Odyssey blocking buffer and 1/10,000 Draq5 (Biostatus) for cell normalization. After final washing with PBS/0.1% Tween IR, the fluorescence of bound antibodies was determined using the Odyssey (Licor). Background fluorescence was determined by omitting the primary antibody and subtracting values for controls from all other observed values.

The subject of assay [3] is ERK1/2 phosphorylation at Thr202/204 in EA.hy.926 human endothelial cells. Put plainly: ERK1/2 phosphorylation in EA.hy.926 endothelial cells (in-cell Western). Format: cell-based. As to conditions: for ERK1/2 phosphorylation (pERK1/2): 0, 5 or 30 min, TFLL 50 μM, NPND 250 μM, scr-NPND 250 μM; for activation of ERK1/2: Example 7.
Source text: as §1, §2

For assay [4], the system named is glycogen synthase kinase 3β (GSK3β) phosphorylation at Ser9. The assay is described as follows: GSK3β Ser9 phosphorylation in endothelial cells. Format: cell-based, human. As to conditions: for Ser9-GSK3β phosphorylation: Example 6. On the procedure:
To further confirm activation of Akt by the TR47-66 peptide, Akt-mediated inactivation of glycogen synthase kinase 3β (GSK3β) via phosphorylation at Ser9 was determined. GSK3β is a well-known downstream substrate for Akt.

As for thrombin, in assay [1], the “increase in ERK1/2 phosphorylation (phospho/total ERK1/2 ratio)” value (“increase … (phospho/total ERK1/2 ratio)” below) is reported as 3 fold. The “Ser473-Akt phosphorylation (activation of Akt)” value (shortened to “Ser473-Akt phosphorylation”) in assay [2] was “neither thrombin nor TRAP induced”.

As for “NPNDKYEPFWEDEEKNESGL (listed as Homo sapiens) [TR47-66]”, in assay [3], the “ERK1/2 phosphorylation (pERK1/2)” value is “essentially no effect” and the “activation of ERK1/2” value is “failed to induce any noticeable activation”. Besides, in assay [4], the Ser9-GSK3β phosphorylation entry is “induced significant Ser9-GSK3β phosphorylation starting at 30 min”. For the same substance, in assay [2], the “pSer473-Akt (Akt phosphorylation)” value is on record as “increased Akt phosphorylation at Ser^47” and the “Ser473-Akt phosphorylation” value is “induced activation of Akt”. Also, in assay [2] (listed as NPND), the “pSer473-Akt (Akt phosphorylation)” value is reported as “time-dependent sustained increase”. Besides, in assay [2] (with SCH79797), the “Akt phosphorylation at Ser473 in the presence of the PAR1 inhibitor SCH79797” value was “failed to induce Akt phosphorylation”.

“APC: Activated Protein C, serine protease with anticoagulant and cytoprotective cell signaling activities”: the “increase … (phospho/total ERK1/2 ratio)” value in assay [1] came out at 1.5 fold. Also, the “activation of ERK1/2” value in assay [3] is recorded as “transient but modest activation”. For the same substance, in assay [4] (Example 7), the “phosphorylation of GSK3β at Ser9” value is “sustained phosphorylation”. Further, in assay [2], the “Ser473-Akt phosphorylation” value is “robust activation of Akt”.

For the substance “GDENENEKPNWYELKEPDSF (scrambled sequence) [scr-TR47-66, control scrambled TR47-66 peptide containing scrambled residues 47-66, reference compound]”, the “increase … (phospho/total ERK1/2 ratio)” value in assay [1] was “no increase”. Moreover, in assay [3], the “ERK1/2 phosphorylation (pERK1/2)” value is recorded as “essentially no effect”. The Ser9-GSK3β phosphorylation entry in assay [4] is recorded as “no phosphorylation”. Also, the “pSer473-Akt (Akt phosphorylation)” value in assay [2] was “essentially no effect”.

The values are drawn from patent US10273279B2, “Protease activated receptor-1 (PAR1) derived cytoprotective polypeptides and related methods” (THE SCRIPPS RESEARCH INSTITUTE, priority 2011, dated 2019).
